pIC50: −log10 of the molar value. Values joined by “and” are separate entries in the source; they are usually repeats but may differ in a detail not shown here. Equal entries are not always repeated.
Test system: P. falciparum 3D7 growth, pLDH absorbance
Experiment: blood-stage malaria parasite growth potency – strain 3D7, dose response (AID 2305)

Structure (SMILES)	pIC50
O=C(Nc1ccc2c(c1)CCNCC2)c1ccc(-c2ccc(Cl)cc2)cc1	6.09
COc1ccc(CNCc2ccccc2)cc1-c1ccc(S(=O)(=O)NCCN2CCCC2)c(F)c1	5.94
c1ccc(CC2=NCCN2)cc1	6.72
CCNc1cc(C(=O)N[C@@H](Cc2ccccc2)[C@H](O)CNC(C)C)cc(N2CC(c3ccccc3)CCS2(=O)=O)c1 (stereo partly specified)	6.39
CC(C)CN1CCN(c2nc(C#N)c3c(c2C(=S)NC2CCCCC2)CC(C)(C)OC3)CC1	6.52
CN1CCN(c2ccnc3ccc(NC(=O)Nc4cccc5c(-c6ccncc6)cccc45)cc23)CC1	6.06
COc1ccc(C[C@H](C)NC[C@H](O)c2cccc(Cl)c2)cc1F	6.00
Cn1c2ccccc2c2c3ccccc3c(CNC(CO)(CO)CO)cc21	6.28
Clc1ncnc2ncn(Cc3cccc(Br)c3)c12	5.97
Cc1cccc2[nH]c(-c3cccc(-c4ccc(NC(=O)c5cnccc5C(F)(F)F)cc4)c3)nc12	6.15
O=C(Nc1cccc(C(F)(F)F)c1)Nc1ccc(Cl)c(C(F)(F)F)c1	6.05
Cc1cccc2[nH]c(-c3cccc(-c4cccc(C(=O)NCCN5CCCC5)c4)c3)nc12	6.08
CCCCCCN1CCC(NCc2cccc([N+](=O)[O-])c2)CC1	6.17
CCCOc1cccc(C(=O)N[C@@H](Cc2ccccc2)[C@H](O)CNCc2cccc(OC)c2)c1	6.13
Cc1[nH]nc2cc(Nc3nccc(Nc4ccc(Oc5ccccc5)cc4)n3)ccc12	6.22
N=C(N)c1ccc(C=Cc2ccc(C(=N)N)cc2O)cc1	7.00
CN(c1ccc(F)cc1)S(=O)(=O)c1ccc(Cl)c(C(=O)Nc2cccc(C#N)c2)c1	6.15
O=C(Nc1cccc(-c2ccc(-c3nc4ccccc4[nH]3)cc2)c1)c1ccncc1	6.28
CNc1ccc(CNCc2cccc(-c3ccc(-c4nc5c(C)cccc5[nH]4)cc3)c2)cc1	6.18
C[C@@H]1CN(c2cnn(Cc3cccc(NC(=O)Nc4ccc(F)cc4[N+](=O)[O-])c3)c(=O)c2Cl)C[C@H](C)N1	6.06
O=C(Nc1ccc(OC2CCN(Cc3ccc(F)cc3)CC2)c(Cl)c1)c1ccco1	6.52
C/C=C1\CN2CC[C@H]1C[C@H]2[C@H](O)c1ccnc2ccc(OC)cc12	6.66 and 6.49
CCN(CC)CCn1c(=N)n(CC(O)c2ccc(Cl)c(Cl)c2)c2ccccc21 (stereo unspecified)	6.10
Cc1nc(-c2cccc(NCc3ccccc3)c2)[nH]c1C	6.07

Structure (SMILES)	pIC50
O=C(NC1CCN(Cc2ccccc2O)C1)c1ccc(-c2ccccc2)cc1 (stereo unspecified)	6.08
COc1cc(NC(=O)c2sc(-c3ccc(Cl)cc3)cc2NC(=O)c2ccncc2)ccc1OCCN1CCCC1	7.52
CC(C)N1CCC(N(Cc2ccc(-c3ccc(C(F)(F)F)cc3)cc2)C(=O)Cn2c(CCc3cccc(F)c3F)nc(=O)c3cccnc32)CC1	6.19
COc1ccc(CCn2c(=N)c(C(=O)NCc3cccnc3)cc3c(=O)n4ccccc4nc32)cc1	6.06
CC(=O)N1N=C(c2cccs2)Sc2c1nc(-c1ccc(Cl)cc1)n2C(C)=O	6.13
CCNCc1ccc(-c2cc3ncnc(Nc4ccc(OCc5cccc(F)c5)c(Cl)c4)c3s2)[nH]1	6.96
CC(=O)N(Cc1nc(-c2cc(C(F)(F)F)cc(C(F)(F)F)c2)cs1)c1c(C)cccc1C	6.96
CN1CCN(c2cc3c(cc2Br)CCN3C(=O)Nc2ccc(-c3cnc4ccccc4c3)cc2)CC1	6.24
COCCNCc1ncsc1-c1ccc2c(Nc3cc(O)c(Cl)cc3F)ccnc2c1	6.26
COc1ccccc1N1CCN(C(C(=O)NCc2ccc(C)cc2)c2ccc(C)cc2)CC1 (stereo unspecified)	6.03
OCCN1CCN(Cc2ccc(-c3cccc(-c4nc5ccc(F)cc5[nH]4)c3)cc2)CC1	6.21
COc1ccc2nccc(NN=Cc3ccc(N(C)C)cc3)c2c1	6.10
CC(=O)Nc1cc(C(=O)Nc2cccc(-c3csc(-c4nc5ccccc5[nH]4)c3)c2)ccc1C	6.34
Cc1nn(C2CCS(=O)(=O)C2)c(C)c1C1Nc2ccccc2C(=O)N1Cc1ccc2c(c1)OCO2 (stereo unspecified)	6.29
Fc1cccc(COc2ccc(Nc3ncnc4cc(/C=C/[C@@H]5CCCN5)sc34)cc2Cl)c1	6.23
CCCCN(CCCC)CCCCCCNc1c2ccccc2nc2ccccc12	6.11
COc1ccc2ncc(F)c(CCN3C[C@H](CNCc4ccc5c(n4)NC(=O)CS5)[C@H](O)C3)c2c1	6.11
CCC(=O)c1ccc(-c2ccc(=O)n(CC(=O)N(CCN(CC)CC)Cc3ccc(-c4ccc(C(F)(F)F)cc4)cc3)n2)cc1	6.14
O=C(Nc1ccc(Oc2ccccc2)cc1)N(CCN1CCCC1)Cc1ccc(-c2ccc(CN3CCNCC3)cc2)cc1	6.05
CS(=O)(=O)c1ccc(CNCc2ccc(-c3ccc(-c4nc5ccc(F)cc5[nH]4)s3)cc2)cc1	6.57
O=C(Nc1cccc(CN2CCCN(CCc3ccccc3)CC2)c1)c1ccc(Cl)c(Cl)c1	6.02
CN1CCC(NCc2cccc(-c3ccc(S(=O)(=O)NCc4ccccc4)c(F)c3)c2)CC1	6.48
CCc1c(C)nc2nc(Cc3cccc(F)c3)nn2c1N1CCN(c2ccccn2)CC1	6.12
CCCCCCN1CCC(CNCc2cccc([N+](=O)[O-])c2)CC1	6.14

Structure (SMILES)	pIC50
COc1ccc2c(NCCc3ccccc3)cc(-c3ccccc3)nc2c1	6.00
CC(C)n1cc(CN2CCCC(C(=O)Nc3cccc(-c4cc5ccccc5[nH]4)c3)C2)cn1 (stereo unspecified)	6.00
CCOc1cc(C(=O)NC2CC(C)(C)NC(C)(C)C2)ccc1-c1nc2ccc(Cl)cc2[nH]1	6.00
O=C(CSc1ccc(Cl)cc1)NC1CCC(CN2CCC(c3c[nH]c4ccccc34)CC2)CC1 (stereo unspecified)	6.03
O=C(/C=C/c1cccc(C(F)(F)F)c1)NCCCCCN1CCN(C(=O)Nc2ccc(Cl)c(Cl)c2)CC1	6.03
O=C(NCCCCN1CCC(c2ccc(C(F)(F)F)cc2C(F)(F)F)CC1)c1ccc(NC(=O)c2ccc(Cl)cc2)cc1	6.21
Nc1nc(N)c2c(ccc3c2ccn3C2CCCCC2)n1	6.92
CN1CC[C@@H](Oc2cc(CNC(=O)c3ccc(-c4ccc(Cl)cc4)s3)ccc2C(F)(F)F)C1	5.99
CCC(=O)N(c1ccccc1)C1CCN(CCCC(NC(=O)c2cc(C(F)(F)F)cc(C(F)(F)F)c2)c2ccc(Cl)c(Cl)c2)CC1 (stereo unspecified)	6.10
CCCC(CNCc1ccc(Cl)c(C(F)(F)F)c1)CNc1nc2ccncc2[nH]1 (stereo unspecified)	6.54
CCc1cn2c3c(cc(C(=O)N[C@@H](Cc4ccccc4)[C@H](O)CNC(C)(C)c4cccc(OC)c4)cc13)N(C)S(=O)(=O)C2	7.22
c1ccc2c(NCCCCCCNc3c4ccccc4nc4ccccc34)c3ccccc3nc2c1	6.12
CCc1cn2c3c(cc(C(=O)N[C@@H](Cc4ccccc4)[C@H](O)CNC4CCCCC4)cc13)N(C)S(=O)(=O)C2	7.05
O=C(Nc1ccc(S(=O)(=O)N2CCCCC2)cc1)c1cc(-c2cc(Cl)ccc2O)n[nH]1	6.09
O=C(NCc1ccc(Cl)c(Cl)c1)c1ccc(C2CCCN(Cc3ccc4nc[nH]c4c3)C2)cc1 (stereo unspecified)	6.11
N#Cc1ccc(NC(=Nc2ccccc2Br)N(C2CCCCC2)C2CCCCC2)c(O)c1	6.11
CN(CCCCNC(=O)/C=C/c1ccccc1)C1CC2(CCN(C(=O)OC(C)(C)C)CC2)c2ccccc21 (stereo unspecified)	5.94
CCCc1ccc(Cc2cnc3nc(N)nc(N)c3c2C)cc1	6.55
COc1cc2c(c(Cl)c1OC)CCN(Cc1ccccc1)CC2c1ccc(C(N)=O)cc1 (stereo unspecified)	6.07
CC1(C)N=C(N)NC(Nc2ccc(Cl)cc2)=N1	6.47
c1ccc(Oc2ccc(Nc3ccnc4ccc(-c5ccco5)cc34)cc2)cc1	6.03
Cc1ccc(Nc2nccc(Nc3ccc4c(c3)nc(Nc3cc(C(C)(C)C)on3)n4C)n2)cc1S(C)(=O)=O	6.22
N#Cc1ccc(N(CCOc2ccc(Cl)c(Cl)c2)Cc2ccccc2C(F)(F)F)cc1C(F)(F)F	5.95
NC(N)=NC(=O)Nc1cc(Br)c(Cl)c(C(F)(F)F)c1	6.12

Structure (SMILES)	pIC50
COc1ccc(Nc2nccc(-c3ccc(NC(=O)c4cc5cc(F)ccc5[nH]4)cc3)n2)cc1	6.20
COc1ccc2nccc([C@@H](O)CN3CC[C@H](NCc4cnc5c(c4)NC(=O)CS5)[C@H](F)C3)c2c1	6.11
CC(C)(O)CC(C)(C)c1cc(Cl)ccc1O	6.35
CCOc1c(CNCCCNc2nc3ccccc3[nH]2)cc(Br)cc1OC	6.25
O=C(/C=C/c1ccc(Cl)c(Cl)c1)NCCCCCN1CCC(NC(=O)NC2CCCCCC2)CC1	6.34
COc1cc(F)c2nccc([C@@H](O)CN3CC[C@@H](NC(=O)OCc4ccccc4)[C@@H](F)C3)c2c1	6.39
Cc1[nH]c(C)c(-c2ccc(OCc3cc(C(F)(F)F)cc(C(F)(F)F)c3)nc2)c(=O)c1Br	6.82
OC(CN(Cc1ccccc1)Cc1ccccc1)Cn1c2ccc(Cl)cc2c2cc(Cl)ccc21 (stereo unspecified)	6.00
Cc1ccc(-c2cc(C(=O)Nc3ccc(S(=O)(=O)N(C)Cc4ccccc4)cc3)[nH]n2)c(O)c1	6.07
Nc1nccc2ccc(-c3cccnc3)cc12	6.38
COc1ccc(CCN(C)CCc2ccc(NC(=O)c3cccc4c(=O)c5ccccc5sc34)cc2)cc1	6.07
COc1ccc2ccc(F)c(CC(=O)N3CCOC(CNCc4cccc(-c5ccsc5)n4)C3)c2n1 (stereo unspecified)	5.93
Nc1nc2ccc(S(=O)(=O)Nc3ccc(C(=O)N[C@@H](CCC(=O)O)C(=O)O)c(F)c3)cc2c(=O)[nH]1	6.09
O=C(Nc1cccc(C(F)(F)F)c1)N1CCOC(CCN2CCC(c3ccccc3)CC2)(c2ccc(Cl)c(Cl)c2)C1 (stereo unspecified)	5.95
N#CC(c1ccc(Br)cc1)c1ccc2c(C(F)(F)F)cc(C(F)(F)F)nc2n1 (stereo unspecified)	6.36
CC(C)(C)c1ccccc1SC1=C(O)CC2(CCNCC2)OC1=O	6.06
OCc1c(Cl)cc(Cl)cc1CNCCCNc1nc2ccccc2[nH]1	6.13
COc1cc2nc(N3CCC(CNC(=O)c4ccc(-c5ccc(-c6noc(C)n6)cc5C)cc4)CC3)nc(N)c2cc1OC	6.66
O=C(Nc1nc2cc(S(=O)(=O)NCc3ccc(Cl)c(Cl)c3)ccc2n1CCCn1ccnc1)c1ccc(Cl)cc1	6.14
O=C(NCCN1CCOCC1)c1ccc(-c2ccc(CNCCCc3ccccc3)cc2)nc1	6.11
Cc1ccc(Cn2nc(Cl)c(N3CCNCC3)cc2=O)cc1NC(=O)Nc1ccc(-c2ccccc2)cc1	6.17
O=C(NC1CCN(c2ncc(C(F)(F)F)cc2Cl)CC1)c1cccs1	6.05
Cc1cc(N2CCCC2)nc(Nc2ccc(NC(=O)c3cccc(F)c3)cc2)n1	6.74
CC(C)C1=NCc2ccc([N+](=O)[O-])cc2C(=O)N1	6.82

Source: PubChem BioAssay AID2305 (GlaxoSmithKline (GSK), 2010)
